Values after ≈ are worked out from the molar mass of the structure shown.
Assays:
Assay type in all cases: cell-based
[1] = tested on: human cytomegalovirus (HCMV); experiment: Anticytomegaloviral plaque formation inhibition in human fetal fibroblast (Test Example 2, Method 2); details: Human betaherpesvirus 5, 240 h, AO169 strain, 10 days, read-out: IC₅₀ HCMV
Procedure: An activity against human cytomegalovirus (HCMV) which was DNA virus was examined by the following method.
Anticytomegaloviral activity was determined in terms of 50% inhibitory concentration (IC₅₀) by infecting 35 mm dish having a single layer of human fetal fibroblast with 100 PFU (plaque forming unit) of cytomegalovirus (AO169 strain), adsorbing for an hour, laying thereon a medium containing the compound of each concentration supplemented with 0.5% agarose and 2% fetal calf serum, culturing at 37°C for 10 days in a 5% (v/v) carbon dioxide gas incubator and measuring formation of plaque.

[2] = tested on: mouse leukemia P388 cells; experiment: Growth inhibition of P388 cells, cell count (Test Example 5, Method 6); details: 50% growth inhibitory concentration, 48 hours, read-out: IC₅₀ P338
Procedure: (§1) Anticancer activity against human uterine cervical cancer HeLa S₃, mouse leukemia L1210 and P388 cells was examined by the following method. P388 and L1210 cells were inoculated on a 24 well plate and the compound was added thereto followed by incubation at 37°C for 48 hours in 5% CO₂. The number of cells after the incubation was counted with a Caulter counter. The growth inhibition rate of the treated group to the control group was calculated according to the equation below and 50% growth inhibitory concentration (IC₅₀, µg/ml) was determined by the Litchfield method. Growth inhibition rate (%) = [1 - (NT-N₀)/(Nc-N₀)] x 100 wherein NT = cell count of the treated group N₀ = cell count at the onset of incubation Nc = cell count of the control group

[3] = tested on: mouse leukemia L1210 cells; experiment: Growth inhibition of L1210 cells, cell count (Test Example 5, Method 6); details: 50% growth inhibitory concentration, 48 hours, read-out: IC₅₀ L1210
Procedure: as §1

[4] = tested on: human uterine cervical cancer HeLa S₃; experiment: Growth inhibition of HeLa S3 cells, Methylene Blue staining (Test Example 5, Method 5); details: 50% growth inhibitory concentration, 72 hours, read-out: IC₅₀ HeLaS₃
Procedure: Anticancer activity against human uterine cervical cancer HeLa S₃, mouse leukemia L1210 and P388 cells was examined by the following method. HeLa S₃ cells were prepared in a concentration of 7.5 x 10³ cells/ml and inoculated on a 96 well flat bottom plate by 0.2 ml/well each. After culturing at 37°C for 24 hours in a 5% CO₂ incubator, 10 µl of the compound was added thereto followed by culturing for 72 hours. After culturing, the culture medium of each well was withdrawn and fixed with methanol. Then, 0.1 ml/well each of 0.05% Methylene Blue/10 mM-Tris-HCl (pH 8.5) solution was added to stain at room temperature for 30 minutes. After withdrawing the dyeing solution from each well using an aspirator, the well was washed 3 times with pure water. After adding 3% HCl in a ratio of 0.2 ml/well, the well was sealed and allowed to stand at room temperature for about 24 hours and the dye was then extracted from the cells. Absorbance of each well at 660 nm was measured with Dynatec microplate reader. The growth inhibition rate treated wells to the control wells were calculated according to the equation below and 50% growth inhibitory concentration (IC₅₀, µg/ml) was determined by the Litchfield method. Growth inhibition rate (%) = (1 - A₁/A₀) x 100 wherein A₁ = Absorbance of the treated group A₀ = Absorbance of the control group

[5] = tested on: herpes simplex virus type 1 (HSV-I); experiment: Plaque formation inhibition in Vero cells (Test Example 1, Method 1); details: Human alphaherpesvirus 1, 48 hours, read-out: IC₅₀ HSV-1
Procedure: (§2) Antiviral activity against herpes simplex virus type 1 (HSV-I) and herpes simplex virus type 2 (HSV-II) which were DNA viruses was examined by the following methods.
(§3) A 6 well multiplate bearing a single layr of Vero cells (derived from African green monkey kidney cell) was infected with 100-150 PFU (plaque forming unit) of virus. After (infection) at 37°C for an hour, agar medium (Eagle's MEM medium supplemented with 1.5% agar) containing a sample of each concentration was put on the single layer followed by culturing at 37°C for 48 hours in a 5% (v/v) carbon dioxide incubator. Thereafter, formation of plaque was measured to determine 50% inhibitory concentration (IC₅₀).

AIDS virus (HIV) = experiment: Anti-HIV activity in MT-4 cells, viral antigen by fluorescent antibody method (Test Example 4, Method 4); details: Human immunodeficiency virus 1, MT4, 96 h, read-out: IC₅₀ HIV
Procedure: Activity against AIDS virus (HIV) which was RNA virus was examined by the following method.
In an anti-HIV (human immunodeficiency virus) active 24 well tray were charged about 50,000/ml of MT-4 cells. Further […] of a solution containing a definite amount of the compound of this invention was added thereto. After culturing at 37°C for 2 hours in a 5% (v/v) carbon dioxide gas incubator, 10³-10⁴ infection units of HIV were added thereto. After culturing for 4 days, a part of the culture solution was smeared on a slide glass and fixed with acetone. Then, occurrence of viral antigen was observed by fluorescent antibody method.
As primary antibody in the fluorescent antibody method, serum from the patient with AIDS was used and FITC-labeled anti-human IgG was used as secondary antibody.

[6] = tested on: herpes simplex virus type 2 (HSV-II); experiment: Plaque formation inhibition in Vero cells (Test Example 1, Method 1); details: Human alphaherpesvirus 2, 48 hours, read-out: IC₅₀ HSV-2
Procedure: as §2, §3

hepatitis B virus (HBV) = experiment: Hepatitis B virus DNA in liver cell line HB611, Southern method (Test Example 3, Method 3); details: 360 h, HB611 cells, 15 days, HBV DNA by Southern method, read-out: IC₅₀ HBV
Procedure: Activity against hepatitis B virus (HBV) which was DNA virus was examined by the following method.
Incubated liver cell line HB611 (Proc. Natl. Acad. Sci. USA, 84 (1987), 444) capable of producing and releasing activated hepatitis B virus was cultured in modified Eagle's medium (GIBCO) at 37°C in 5% CO₂ in the presence 10% fetal calf serum, 200 µg/ml of G418 and 100 U/ml each of penicillin and streptomycin. The culture was inoculated on a 6 well plate in 5 x 10⁴ cells/well (35 mm). When 50% confluent state was achieved 1 or 2 days after, a definite quantity of this compound was added and the mixture was cultured. While exchanging with a medium containing the compound in the same concentration every 3 other days, incubation was continued for 15 days. Thereafter the medium was removed. The cells were treated with 0.5 ml of lysis buffer (10 mM Tris HCl, pH 7.8/5 mM Na₂EDTA, 1% SDS/0.1 mg/ml Pronase K) at 37°C for an hour. The resulting DNA was treated with RNase and purified by treatment with phenol and chloroform and then precipitation with ethanol.
Then, 5 µg of DNA was treated with Hind III and DNA pattern was analyzed by the Southern method using as a probe ³²P-labeled hepatitis B virus DNA.

IC50 [5]	Structure (SMILES)	IC50 [1]	IC50 [2]	IC50 [3]	IC50 [4]	IC50 (AIDS virus (HIV))	IC50 [6]	IC50 (hepatitis B virus (HBV))
–	O=c1[nH]cnc2c1ncn2[C@@H]1C[C@H](CO)[C@H]1O (racemic) [Compound 4-2, (±)-9-[(1β,2α,3β)-2-hydroxy-3-hydroxymethylcyclobutan-1-yl]hypoxanthine]	2.8 µg/mL (≈ 11.9 µM)	–	–	–	–	–	–
8.5 µg/mL (≈ 31.5 µM)	Nc1nc(Cl)c2ncn([C@@H]3C[C@H](CO)[C@H]3O)c2n1 (racemic) [Compound 4-3, (±)-2-amino-6-chloro-9-[(1β,2α,3β)-2-hydroxy-3-hydroxymethylcyclobutan-1-yl]purine]	3.3 µg/mL (≈ 12.2 µM)	12 µg/mL (≈ 44.5 µM)	8 µg/mL (≈ 29.7 µM)	66 µg/mL (≈ 245 µM)	–	–	–
2.2 µg/mL (≈ 8.79 µM)	Nc1nc(N)c2ncn([C@@H]3C[C@H](CO)[C@H]3O)c2n1 (racemic) [Compound 4-4, (±)-2,6-diamino-9-[(1β,2α,3β)-2-hydroxy-3-hydroxymethylcyclobutan-1-yl]purine]	0.69 µg/mL (≈ 2.76 µM)	3.4 µg/mL (≈ 13.6 µM)	2.4 µg/mL (≈ 9.59 µM)	21 µg/mL (≈ 83.9 µM)	3 µg/mL (≈ 12 µM)	–	–
4 µg/mL (≈ 17 µM)	Nc1ncnc2c1ncn2[C@@H]1C[C@H](CO)[C@H]1O (racemic) [Compound 7, (±)-9-[(1β,2α,3β)-2-hydroxy-3-hydroxymethylcyclobutan-1-yl]adenine]	0.45 µg/mL (≈ 1.91 µM)	1.64 µg/mL (≈ 6.97 µM)	1.84 µg/mL (≈ 7.82 µM)	6.97 µg/mL (≈ 29.6 µM)	–	–	–
–	[N-]=[N+]=N[C@@H]1[C@@H](CO)C[C@H]1n1cc(F)c(=O)[nH]c1=O (racemic) [Compound 14, (±)-1-[(1β,2α,3β)-2-azido-3-hydroxymethylcyclobutan-1-yl]-5-fluoro-2,4(1H,3H)-pyrimidinedione]	20 µg/mL (≈ 78.4 µM)	–	–	–	–	–	32 µg/mL (≈ 125 µM)
–	Cc1cn([C@@H]2C[C@H](CO)[C@H]2N)c(=O)[nH]c1=O (racemic) [Compound 17, (±)-1-[(1β,2α,3β)-2-amino-3-hydroxymethylcyclobutan-1-yl]-5-methyl-2,4(1H,3H)-pyrimidinedione]	–	–	–	–	–	–	35 µg/mL (≈ 155 µM)
–	Nc1ncnc2c1ncn2[C@H]1C[C@@H](CO)C1 [Compound 2-1, 9-[(1β,3β)-3-hydroxymethylcyclobutan-1-yl]adenine]	–	34.1 µg/mL (≈ 156 µM)	63.1 µg/mL (≈ 288 µM)	100 µg/mL (≈ 456 µM)	0.3 µg/mL (≈ 1.37 µM)	–	2 µg/mL (≈ 9.12 µM)

Structure (SMILES)	IC50 [5]	IC50 [1]	IC50 [2]	IC50 [3]	IC50 [4]	IC50 (AIDS virus (HIV))	IC50 [6]	IC50 (hepatitis B virus (HBV))
Nc1nc2c(ncn2[C@@H]2C[C@H](CO)[C@H]2O)c(=O)[nH]1 (racemic) [Compound 9, (±)-9-[(1β,2α,3β)-2-hydroxy-3-hydroxymethylcyclobutan-1-yl]guanine]	0.3 µg/mL (≈ 1.19 µM)	0.95 µg/mL (≈ 3.78 µM)	2.57 µg/mL (≈ 10.2 µM)	2.56 µg/mL (≈ 10.2 µM)	10.9 µg/mL (≈ 43.4 µM)	–	0.31 µg/mL (≈ 1.23 µM)	–
Nc1nc2c(ncn2[C@H]2C[C@@H](CO)C2)c(=O)[nH]1 [Compound 2-2, 9-[(1β,3β)-3-hydroxymethylcyclobutan-1-yl]guanine]	1.6 µg/mL (≈ 6.8 µM)	2.6 µg/mL (≈ 11.1 µM)	11.5 µg/mL (≈ 48.9 µM)	23.1 µg/mL (≈ 98.2 µM)	30 µg/mL (≈ 128 µM)	10 µg/mL (≈ 42.5 µM)	3.6 µg/mL (≈ 15.3 µM)	–

Source: patent EP0330992A2, “Novel cyclobutane Derivatives, processes for their preparation and pharmaceutical compositions comprising them” (Nippon Kayaku Kabushiki Kaisha, priority 1988, dated 1989)
